Where two headings read alike, the source gives them in different places.
Key:
CYP3A4 = CYP3A4 (Homo sapiens, UniProt P08684); experiment: Inhibition of recombinant CYP3A4 (probe nifedipine); format: in vitro ADME; settings: recombinant isozyme; mean ± SD of triplicate; unit not given (IC50 classes in μM); read-out: IC50 towards CYP3A4
Protocol: (§1) In this study, phenacetin (100 μM), coumarin (100 μM), bupropion (100 μM), paclitaxel (60 μM), tolbutamide (200 μM), mephenytoin (100 μM), chlorzoxazone (200 μM) and nifedipine (40 μM) have been used as the probe substrates for CYP1A2, 2A6, 2B6, 2C8, 2C9, 2C19, 2E1 and 3A4, respectively.

UGT1A9 = molecular target: T1, UGT1A9 (Homo sapiens, UniProt O60656); experiment: Inhibition of expressed UGT1A9 (probe propofol); format: in vitro ADME
T1 sequence (O60656 26-530): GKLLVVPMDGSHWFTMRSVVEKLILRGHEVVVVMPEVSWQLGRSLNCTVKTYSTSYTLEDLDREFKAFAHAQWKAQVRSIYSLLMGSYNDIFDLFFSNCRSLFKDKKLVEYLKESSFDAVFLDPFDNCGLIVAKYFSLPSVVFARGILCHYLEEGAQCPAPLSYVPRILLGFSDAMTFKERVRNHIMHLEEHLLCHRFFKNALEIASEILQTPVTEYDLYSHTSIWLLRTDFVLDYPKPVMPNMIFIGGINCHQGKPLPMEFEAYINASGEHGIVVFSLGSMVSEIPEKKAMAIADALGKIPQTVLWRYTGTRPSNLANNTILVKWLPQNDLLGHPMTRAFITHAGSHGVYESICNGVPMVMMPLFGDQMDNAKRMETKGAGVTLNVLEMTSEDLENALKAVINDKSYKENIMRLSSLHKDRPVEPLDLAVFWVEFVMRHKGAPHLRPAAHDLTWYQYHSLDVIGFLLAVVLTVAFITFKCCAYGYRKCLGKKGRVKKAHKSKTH
Protocol: After centrifugation (13,800g, 10 min), the supernatant (8 μL) was obtained for determination by UHPLC system.
Similarly, β-estradiol (60 μM), propofol (40 μM) and 4-MU (350 μM) were typically used as the substrates for UGT1A1, 1A9 and 2B7, respectively. After optimization of incubation conditions (Additional file 1: Fig. S2), the protein concentrations for UGT1A1, 1A9, and 2B7 were 0.125, 0.05, and 0.05 mg/mL, respectively.

CYP2A6 = molecular target: T2, CYP2A6 (Homo sapiens, UniProt P11509); experiment: Inhibition of recombinant CYP2A6 (probe coumarin); format: in vitro ADME; settings: recombinant isozyme; mean ± SD of triplicate; unit not given (IC50 classes in μM); read-out: IC50 towards CYP2A6
T2 sequence (P11509 1-494): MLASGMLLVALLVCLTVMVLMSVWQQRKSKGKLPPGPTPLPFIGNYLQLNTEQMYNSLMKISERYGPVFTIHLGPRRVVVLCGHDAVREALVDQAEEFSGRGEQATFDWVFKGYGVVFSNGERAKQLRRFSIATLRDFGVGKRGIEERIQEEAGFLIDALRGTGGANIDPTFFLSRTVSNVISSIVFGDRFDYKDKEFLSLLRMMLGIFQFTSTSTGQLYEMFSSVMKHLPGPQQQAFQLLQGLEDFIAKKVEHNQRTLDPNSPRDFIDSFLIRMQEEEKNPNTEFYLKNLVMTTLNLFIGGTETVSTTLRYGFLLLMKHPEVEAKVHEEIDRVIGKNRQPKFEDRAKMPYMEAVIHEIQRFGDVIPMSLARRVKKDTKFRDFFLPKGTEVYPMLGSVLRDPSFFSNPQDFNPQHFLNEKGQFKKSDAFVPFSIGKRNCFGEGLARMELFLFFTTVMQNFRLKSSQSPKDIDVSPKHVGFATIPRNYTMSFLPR
Protocol: as §1

[1] = Stability tests of analytes in rat plasma QC samples; format: in vitro ADME
Protocol: […] The dilution integrity was investigated by analyzing six replicate samples with each analyte, and each analyte were diluted 10-fold with blank rat matrix. Furthermore, the diluted samples were analyzed using freshly prepared calibration curve to calculate RE and RSD, which should be no more than ± 15% as criterion.

[2] = Urinary (renal) excretion in rats after a 30-min infusion of Kang-Ai injection; format: in vivo, Sprague–Dawley rats; settings: Kang-Ai injection 6 mL/kg iv; for CL renal: male, Sprague-Dawley, urine and plasma, rat, read-out: CLR (renal excretory clearance) (converted); for fe-U,0–12h (fraction of dose excreted into urine): rat urine 0–12 h
Outline: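 Urine collected in metabolic cages at 0–4, 4–8, 8–12 h and bile at 0–3, 3–6, 6–9, 9–12 h after infusion start, weighed and frozen at −80 °C. Non-compartmental analysis; CLR and CLB as cumulative urinary or biliary amount divided by plasma AUC0-∞, fe-U and fe-B as cumulative amount/dose; mean ± SD (n = 3).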

[3] = recombinant isozyme, mean ± SD of triplicate, unit not given (IC50 classes in μM), read-out: IC50 towards UGT1A9
[4] = rat plasma, nominal conc. 20 nM
[5] = rat plasma, nominal conc. 100 nM
[6] = rat plasma, nominal conc. 400 nM

CYP3A4, sequence (P08684 whole entry): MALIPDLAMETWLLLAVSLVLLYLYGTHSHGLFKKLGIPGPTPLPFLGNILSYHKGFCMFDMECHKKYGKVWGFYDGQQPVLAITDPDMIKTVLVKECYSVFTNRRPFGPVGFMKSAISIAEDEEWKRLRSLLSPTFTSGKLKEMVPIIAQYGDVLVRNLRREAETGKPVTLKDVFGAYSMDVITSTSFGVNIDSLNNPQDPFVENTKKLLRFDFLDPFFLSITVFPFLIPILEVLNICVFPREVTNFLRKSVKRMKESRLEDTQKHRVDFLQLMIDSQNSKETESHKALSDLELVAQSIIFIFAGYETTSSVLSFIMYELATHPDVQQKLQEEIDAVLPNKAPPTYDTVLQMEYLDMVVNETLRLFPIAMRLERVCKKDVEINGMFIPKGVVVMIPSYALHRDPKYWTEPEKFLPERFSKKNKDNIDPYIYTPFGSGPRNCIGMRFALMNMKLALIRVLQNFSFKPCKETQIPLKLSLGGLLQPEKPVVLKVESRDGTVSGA

SMILES	IC50 (CYP3A4) [µM]	IC50 (UGT1A9; [3]) [µM]	IC50 (CYP2A6) [µM]	At -80 °C for 48 h, Mean±SD [1, 4] [nM]	At -80 °C for 48 h, RE [1, 4] [%]	Extracted samples at 8 °C for 18 h, Mean±SD [1, 4] [nM]	Extracted samples at 8 °C for 18 h, RE [1, 4] [%]	Short-term stability at room temperature for 6 h, Mean±SD [1, 4] [nM]	Short-term stability at room temperature for 6 h, RE [1, 4] [%]	Three freeze-thaw cycles (-80 °C ↔ 23 °C), Mean±SD [1, 4] [nM]	Three freeze-thaw cycles (-80 °C ↔ 23 °C), RE [1, 4] [%]	At -80 °C for 48 h, Mean±SD [1, 5] [nM]	At -80 °C for 48 h, RE [1, 5] [%]	Extracted samples at 8 °C for 18 h, Mean±SD [1, 5] [nM]	Extracted samples at 8 °C for 18 h, RE [1, 5] [%]	Short-term stability at room temperature for 6 h, RE [1, 5] [%]	Three freeze-thaw cycles (-80 °C ↔ 23 °C), Mean±SD [1, 5] [nM]	Three freeze-thaw cycles (-80 °C ↔ 23 °C), RE [1, 5] [%]	At -80 °C for 48 h, Mean±SD [1, 6] [nM]	At -80 °C for 48 h, RE [1, 6] [%]	further results
CC(C)=CCC[C@](C)(O[C@@H]1O[C@H](CO[C@@H]2O[C@@H](CO)[C@H](O)[C@H]2O)[C@@H](O)[C@H](O)[C@H]1O)[C@H]1CC[C@]2(C)[C@@H]1[C@H](O)C[C@@H]1[C@@]3(C)CC[C@H](O[C@@H]4O[C@H](CO)[C@@H](O)[C@H](O)[C@H]4O[C@@H]4O[C@H](CO)[C@@H](O)[C@H](O)[C@H]4O)C(C)(C)[C@@H]3CC[C@]12C [Compound D3, Ginsenoside Rc]	> 100	29 ± 12.7	> 100	21.79 ± 0.54	11.90	21.26 ± 0.64	9.82	21.00 ± 1.54	10.56	22.31 ± 0.31	12.70	92.14 ± 3.15	-10.73	91.90 ± 3.48	-12.09	-13.45	107.11 ± 6.52	11.88	421.69 ± 7.21	7.06	inhibition type (smallest AIC and SC) (UGT1A9; UGT1A9): Noncompetitive inhibition; Ki (UGT1A9; UGT1A9, competitive model): 8.9 ± 1.5 µM; Ki (UGT1A9; UGT1A9, mixed-type model): 27 ± 7.5 µM; α (UGT1A9; UGT1A9, mixed-type model): 0.7 ± 0.3; Ki (UGT1A9; UGT1A9, noncompetitive model): 22.3 ± 1.4 µM; Cmax/Ki ([I]/Ki) (UGT1A9; UGT1A9, selected model, rat plasma Cmax): 0.04; IC50 (UGT1A9; propofol 40 μM, read-out: IC50 against UGT1A9): 29 µM; Extracted samples at 8 °C for 18 h, Mean±SD [1, 6]: 432.26 ± 28.61 nM; Extracted samples at 8 °C for 18 h, RE [1, 6]: 12.97%; Short-term stability at room temperature for 6 h, Mean±SD [1, 6]: 366.80 ± 3.85 nM; Short-term stability at room temperature for 6 h, RE [1, 6]: -9.03%; Three freeze-thaw cycles (-80 °C ↔ 23 °C), Mean±SD [1, 6]: 413.15 ± 9.39 nM; Three freeze-thaw cycles (-80 °C ↔ 23 °C), RE [1, 6]: 5.12%; Short-term stability at room temperature for 6 h, Mean±SD ([1]; rat, 6 h, 100 nM): 94.62 ± 9.91 nM; CL renal [2]: 0.00967 mL/min; fe-U,0–12h (fraction of dose excreted into urine) [2]: 10.48 ± 1.31%
CC(C)=CCC[C@](C)(O[C@@H]1O[C@H](CO[C@@H]2O[C@H](CO)[C@@H](O)[C@H](O)[C@H]2O)[C@@H](O)[C@H](O)[C@H]1O)[C@H]1CC[C@]2(C)[C@@H]1[C@H](O)C[C@@H]1[C@@]3(C)CC[C@H](O[C@@H]4O[C@H](CO)[C@@H](O)[C@H](O)[C@H]4O[C@@H]4O[C@H](CO)[C@@H](O)[C@H](O)[C@H]4O)C(C)(C)[C@@H]3CC[C@]12C [Compound D5, Ginsenoside Rb1]	> 100	> 100	> 100	20.64 ± 1.63	8.70	17.96 ± 0.32	-11.74	20.30 ± 1.81	9.00	19.99 ± 1.88	-10.85	94.32 ± 8.04	-13.46	101.02 ± 12.87	-13.83	-12.30	108.29 ± 6.26	12.24	428.49 ± 29.97	12.25	Short-term stability at room temperature for 6 h, Mean±SD [1, 5]: 91.65 ± 3.42 nM; Extracted samples at 8 °C for 18 h, Mean±SD [1, 6]: 409.55 ± 29.87 nM; Extracted samples at 8 °C for 18 h, RE [1, 6]: 9.12%; Short-term stability at room temperature for 6 h, Mean±SD [1, 6]: 388.96 ± 18.81 nM; Short-term stability at room temperature for 6 h, RE [1, 6]: -6.00%; Three freeze-thaw cycles (-80 °C ↔ 23 °C), Mean±SD [1, 6]: 441.95 ± 3.33 nM; Three freeze-thaw cycles (-80 °C ↔ 23 °C), RE [1, 6]: 11.44%; CL renal [2]: 0.00633 mL/min; fe-U,0–12h (fraction of dose excreted into urine) [2]: 6.41 ± 1.47%

From PMC7339578, “Multiple circulating alkaloids and saponins from intravenous Kang-Ai injection inhibit human cytochrome P450 and UDP-glucuronosyltransferase isozymes: potential drug–drug interactions” (Chinese Medicine, 2020)
